These results are taken from patent publication US10829492B2, “Amino pyrazolopyrimidine compound used as neurotrophic factor tyrosine kinase receptor inhibitor” (CHIA TAI TIANQING PHARMACEUTICAL GROUP CO., LTD., priority 2016, dated 2020).

For one series, the target named is TrkC kinase (Homo sapiens (Human), UniProt Q16288). Put plainly: HTRF assay for inhibitory activity (IC50) against NTRK kinase, TrkC. The format is biochemical. The following applies: ATP 20 μM, kinase 1 nM. The method, then: (§1) 1. Assay for Inhibitory Activity (IC50) Against NTRK Kinase
(§2) A testing platform for TrkA, TrkB and TrkC kinase activity was established based on Homogeneous Time-Resolved Fluorescence (HTRF) assay, and the activities of the compounds were tested using the platform. The compounds were subjected to three-fold gradient dilution with 100% DMSO with a starting concentration of 1 mM (11 concentrations in total). 4 μL of diluted sample for each concentration was added to 96 μL of reaction buffer (50 mM HEPES, pH7.4, 5 mM MgCl2, 1 mM NaVO3, 0.001% Tween-20, 0.01% BSA and 1 mM DTT) and mixed homogeneously to be used as a 4* compound. The reaction buffer was used to formulate 2* TrkA, TrkB and TrkC kinases (purchased from Carna Biosciences 08-186, 08-187, 08-197, and the final concentrations thereof were 0.5 nM, 0.1 nM, and 1 nM, respectively) and 4* substrate mixture (ATP+TK peptide) (wherein the final concentrations of ATP were 40 μM, 50 μM, and 20 μM, respectively; TK peptide, HTRF® KinEASE™-TK, was purchased from Cisbio, and the final concentration thereof was 100 nM) for use. 2.5 μL of the 4* compound was added to a 384-well plate (OptiPlate-384, purchased from PerkinElmer), and then 5 μL of the 2* TrkA, TrkB and TrkC kinases were added, and mixed homogeneously by centrifugation. Then 2.5 μL of the 4* substrate mixture was added to initiate the reaction (the total reaction volume is 10 μL). The 384-well plate was placed in an incubator and incubated for 60 min at 23° C. Then the reaction was terminated by adding 5 μL of Eu3+ cryptate-labeled anti-phosphotyrosine antibody (HTRF® KinEASE™-TK, purchased from Cisbio), and 5 μL of Streptavidin-XL-665 (HTRF® KinEASE™-TK, purchased from Cisbio). After incubated for 1 hr in the incubator, the fluorescence values were read on Envision (purchased from PerkinElmer). The excitation wavelength was 320 nm, and the emission wavelengths for detection were 665 nm and 620 nm. The enzymatic activity was represented by a ratio of the two readout at the two emission wavelengths. The enzymatic activity for each compound was tested at 11 concentrations, and IC50 values of the compounds were obtained by calculating the data using GraFit6.0 software (Erithacus Software).
(In general: In TR-FRET formats the signal depends on donor and acceptor labels being close together.)

The next series has as its target TrkA kinase (Homo sapiens (Human), UniProt P04629). As to the kind of experiment: HTRF assay for inhibitory activity (IC50) against NTRK kinase, TrkA. The following applies: kinase 0.5 nM. The format is biochemical. Here is the method:
as §1, §2

Another series concerns the target TrkB kinase (Homo sapiens (Human), UniProt Q16620). As to the kind of experiment: HTRF assay for inhibitory activity (IC50) against NTRK kinase, TrkB. Format: biochemical. The following applies: ATP 50 μM, kinase 0.1 nM. The method, then:
as §1, §2

Another series concerns the target JAK2 kinase (Homo sapiens (Human), UniProt O60674). Put plainly: HTRF assay for inhibitory activity (IC50) against JAK2 kinase. The format is biochemical. The following applies: ATP 5 μM, kinase 0.05 nM. The method, then:
2. Assay for Inhibitory Activity (IC50) Against JAK2 Kinase
A testing platform for JAK2 kinase activity was established based on Homogeneous Time-Resolved Fluorescence (HTRF) assay, and the activities of the compounds were tested using the platform. The compounds were subjected to three-fold gradient dilution with 100% DMSO with a starting concentration of 1 mM (11 concentrations in total). 4 μL of diluted sample for each concentration was added to 96 μL of reaction buffer (50 mM HEPES, pH7.4, 10 mM MgCl2, 1 mM EDTA, 0.01% Tween-20, 0.005% BSA and 2 mM DTT) and mixed homogeneously. 2.5 μL of the resulting liquid was then added to a 384-well plate (OptiPlate-384, purchased from PerkinElmer), and 5 μL of JAK2 kinase (purchased from Carna, and the final concentration thereof is 0.05 nM) was added, and mixed homogeneously by centrifugation. Then 2.5 μL of a mixture of ATP (the final concentration is 5 μM) and TK peptide (HTRF® KinEASE™-TK, purchased from Cisbio, and the final concentration is 100 nM) was added to initiate the reaction (the total reaction volume is 10 μL). The 384-well plate was placed in an incubator to incubate for 120 min at 23° C. Then the reaction was terminated by adding 5 μL of Eu3+ cryptate-labled anti-phosphotyrosine antibody (purchased from Cisbio), and 5 μL of Streptavidin-XL-665 (HTRF® KinEASE™-TK, purchased from Cisbio). After incubated for 1 hr in the incubator, the fluorescence values were read on Envision (purchased from PerkinElmer). The excitation wavelength was 320 nm, and the emission wavelengths for detection were 665 nm and 620 nm. The enzymatic activity was represented by a ratio of the two readout at the two emission wavelengths. The enzymatic activity for each compound was tested at 11 concentrations, and IC50 values of the compounds were obtained by calculating the data using GraFit6.0 software (Erithacus Software).

In series [1] the target is TrkA^G667C (Kinase domain) kinase (Homo sapiens (Human), UniProt P04629, G667C). Put plainly: HTRF assay for inhibitory activity (IC50) against TrkA^G667C kinase. Format: biochemical. Particulars: mutant TrkA kinase, ATP 15 μM, kinase 0.5 nM. The method, then: 3. Assay for Inhibitory Activity (IC50) Against TrkA^G667C Kinase
TrkA^G667C (Kinase domain) kinase was expressed in Sf9 cells (purchased from Invitrogen) using pIEX-Bac-4 (purchased from Merck), and purified by using Ni column affinity chromatography on AKTA Purifier (GE company). A testing platform for TrkA^G667C kinase activity was established based on Homogeneous Time-Resolved Fluorescence (HTRF) assay, and the activities of the compounds were tested using the platform. The compounds were subjected to five-fold gradient dilution with 100% DMSO with a starting concentration of 1 mM (8 concentrations in total). 4 μL of diluted sample for each concentration was added to 96 μL of reaction buffer (50 mM HEPES, pH7.4, 5 mM MgCl2, 1 mM NaVO3, 0.001% Tween-20, 0.01% BSA and 1 mM DTT) and mixed homogeneously to be used as a 4* compound. The reaction buffer was used to formulate 2* TrkA^G667C kinases (the final concentration was 0.5 nM) and a 4* substrate mixture (ATP+TK peptide) (wherein, the final concentration of ATP was 15 μM; TK peptide, HTRF® KinEASE™-TK, was purchased from Cisbio, and the final concentration thereof was 100 nM) for use. 2.5 μL of the 4* compound was added to a 384-well plate (OptiPlate-384, purchased from PerkinElmer), and then 5 μL of the 2* TrkA^G667C kinases were added, and mixed homogeneously by centrifugation. Then 2.5 μL of the 4* substrate mixture was added to initiate the reaction (the total reaction volume is 10 μL). The 384-well plate was placed in an incubator to incubate for 60 min at 23° C. Then the reaction was terminated by adding 5 μL of Eu3+ cryptate-labeled anti-phosphotyrosine antibody (HTRF KinEASE™-TK, purchased from Cisbio), and 5 μL of Streptavidin-XL-665 (HTRF® KinEASE™-TK, purchased from Cisbio). After incubated for 1 h in the incubator, the fluorescence values were read on Envision (purchased from PerkinElmer). The excitation wavelength was 320 nm, and the emission wavelengths for detection were 665 nm and 620 nm. The enzymatic activity was represented by a ratio of the two readout at the two emission wavelengths. […]

Series [2] is described as follows: Pharmacokinetic assay in rats. Format: in vivo. Particulars: rat, po, male SD rats, 5 mg/kg single intragastric administration, plasma; for AUC(0-inf): read-out: AUCINF_obs. The method, then: Male SD rats were available from Beijing Vital River Laboratory Animal Technology Co., Ltd. The rats were allocated with three rats per group, and separately administered the suspension of a sample to be tested (5 mg/kg) by single intragastric administration. Before the experiment, the animals were fasted overnight, and the fasting time was from 10 hrs before administration to 4 hrs after administration. After administration, a blood sample was taken at 0.25 hr, 0.5 hr, 1 hr, 2 hrs, 4 hrs, 6 hrs, 8 hrs and 24 hrs. After the animals were narcotized with isoflurane using an anaesthesia machine for small animals, 0.3 mL of whole blood was taken from fundus venous plexus, and placed in a heparin anticoagulant tube. At 4° C., the sample was centrifuged at 4000 rpm for 5 min, and plasma was transferred to a centrifuge tube and preserved at −80° C. until the analysis was started. The sample in plasma was extracted by the protein precipitation method, and the extracted liquid was analyzed by LC/MS/MS.

TrkA kinase, sequence (P04629 33-796): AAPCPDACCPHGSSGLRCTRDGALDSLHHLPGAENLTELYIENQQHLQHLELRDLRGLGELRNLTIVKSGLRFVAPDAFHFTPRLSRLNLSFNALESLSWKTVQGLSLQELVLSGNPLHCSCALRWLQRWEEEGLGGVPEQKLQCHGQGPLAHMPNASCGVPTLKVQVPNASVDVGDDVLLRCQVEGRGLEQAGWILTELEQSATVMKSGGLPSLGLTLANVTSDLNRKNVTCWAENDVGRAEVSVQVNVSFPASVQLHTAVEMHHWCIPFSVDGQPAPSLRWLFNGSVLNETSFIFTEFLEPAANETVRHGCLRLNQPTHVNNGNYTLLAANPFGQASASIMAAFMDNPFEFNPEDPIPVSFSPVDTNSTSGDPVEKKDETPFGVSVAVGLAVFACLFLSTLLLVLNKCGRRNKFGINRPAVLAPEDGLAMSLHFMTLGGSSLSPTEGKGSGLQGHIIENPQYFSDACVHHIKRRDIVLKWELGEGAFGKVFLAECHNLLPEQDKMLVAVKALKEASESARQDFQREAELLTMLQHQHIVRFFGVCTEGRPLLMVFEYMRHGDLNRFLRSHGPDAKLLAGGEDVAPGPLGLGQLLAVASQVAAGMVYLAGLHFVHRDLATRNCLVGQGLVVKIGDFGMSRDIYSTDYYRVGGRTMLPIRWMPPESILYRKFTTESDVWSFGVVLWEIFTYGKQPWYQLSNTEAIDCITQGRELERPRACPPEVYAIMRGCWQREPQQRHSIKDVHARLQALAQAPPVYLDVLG
JAK2 kinase, sequence (O60674 whole entry): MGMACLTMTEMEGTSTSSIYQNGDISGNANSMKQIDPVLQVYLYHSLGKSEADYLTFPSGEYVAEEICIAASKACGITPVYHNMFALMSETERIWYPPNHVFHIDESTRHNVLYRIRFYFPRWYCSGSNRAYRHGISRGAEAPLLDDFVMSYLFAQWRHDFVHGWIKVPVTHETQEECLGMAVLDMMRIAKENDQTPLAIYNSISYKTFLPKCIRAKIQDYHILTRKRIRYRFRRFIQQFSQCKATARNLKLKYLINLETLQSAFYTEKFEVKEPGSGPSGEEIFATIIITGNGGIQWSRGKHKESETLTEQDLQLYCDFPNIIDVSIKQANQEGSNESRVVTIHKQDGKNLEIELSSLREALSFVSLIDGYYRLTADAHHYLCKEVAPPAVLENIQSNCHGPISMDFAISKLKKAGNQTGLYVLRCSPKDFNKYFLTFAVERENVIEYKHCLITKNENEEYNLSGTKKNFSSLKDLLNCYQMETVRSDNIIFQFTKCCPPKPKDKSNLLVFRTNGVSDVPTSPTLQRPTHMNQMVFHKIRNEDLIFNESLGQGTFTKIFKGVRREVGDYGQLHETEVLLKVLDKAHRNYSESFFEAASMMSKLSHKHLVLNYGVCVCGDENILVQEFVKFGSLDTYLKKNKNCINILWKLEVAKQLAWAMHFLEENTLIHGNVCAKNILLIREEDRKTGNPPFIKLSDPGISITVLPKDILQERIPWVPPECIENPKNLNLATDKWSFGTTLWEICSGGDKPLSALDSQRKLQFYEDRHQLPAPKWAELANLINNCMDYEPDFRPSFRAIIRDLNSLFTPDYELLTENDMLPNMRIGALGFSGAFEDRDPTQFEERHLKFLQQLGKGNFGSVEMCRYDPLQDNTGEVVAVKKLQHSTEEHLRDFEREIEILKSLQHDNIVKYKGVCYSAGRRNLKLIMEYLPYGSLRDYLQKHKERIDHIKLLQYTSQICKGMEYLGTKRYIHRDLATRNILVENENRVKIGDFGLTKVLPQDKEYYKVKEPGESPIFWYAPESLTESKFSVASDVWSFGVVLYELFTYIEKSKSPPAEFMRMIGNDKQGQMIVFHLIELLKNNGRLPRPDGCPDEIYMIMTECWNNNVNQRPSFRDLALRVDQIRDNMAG
TrkB kinase, sequence (Q16620 32-822): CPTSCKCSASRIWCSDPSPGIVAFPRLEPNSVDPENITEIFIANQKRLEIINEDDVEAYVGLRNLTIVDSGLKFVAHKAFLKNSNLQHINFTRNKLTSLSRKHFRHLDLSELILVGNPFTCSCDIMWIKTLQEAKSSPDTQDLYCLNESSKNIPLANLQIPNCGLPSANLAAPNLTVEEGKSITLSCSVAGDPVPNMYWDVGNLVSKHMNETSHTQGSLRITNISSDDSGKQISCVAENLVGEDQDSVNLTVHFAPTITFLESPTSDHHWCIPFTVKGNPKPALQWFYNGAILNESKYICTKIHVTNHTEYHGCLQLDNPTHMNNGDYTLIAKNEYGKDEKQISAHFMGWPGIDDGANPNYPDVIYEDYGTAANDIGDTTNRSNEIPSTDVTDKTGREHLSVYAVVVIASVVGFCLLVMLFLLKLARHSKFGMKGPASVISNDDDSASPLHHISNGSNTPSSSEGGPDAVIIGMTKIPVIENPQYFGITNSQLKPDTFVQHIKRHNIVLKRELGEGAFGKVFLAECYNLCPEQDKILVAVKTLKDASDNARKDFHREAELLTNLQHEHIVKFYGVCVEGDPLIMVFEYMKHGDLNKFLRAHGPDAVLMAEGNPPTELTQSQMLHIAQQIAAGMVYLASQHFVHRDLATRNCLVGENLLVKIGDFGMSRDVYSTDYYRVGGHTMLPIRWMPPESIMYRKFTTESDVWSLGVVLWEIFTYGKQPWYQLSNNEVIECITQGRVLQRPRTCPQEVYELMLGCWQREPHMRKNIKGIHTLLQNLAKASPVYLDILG
TrkC kinase, sequence (Q16288 32-839): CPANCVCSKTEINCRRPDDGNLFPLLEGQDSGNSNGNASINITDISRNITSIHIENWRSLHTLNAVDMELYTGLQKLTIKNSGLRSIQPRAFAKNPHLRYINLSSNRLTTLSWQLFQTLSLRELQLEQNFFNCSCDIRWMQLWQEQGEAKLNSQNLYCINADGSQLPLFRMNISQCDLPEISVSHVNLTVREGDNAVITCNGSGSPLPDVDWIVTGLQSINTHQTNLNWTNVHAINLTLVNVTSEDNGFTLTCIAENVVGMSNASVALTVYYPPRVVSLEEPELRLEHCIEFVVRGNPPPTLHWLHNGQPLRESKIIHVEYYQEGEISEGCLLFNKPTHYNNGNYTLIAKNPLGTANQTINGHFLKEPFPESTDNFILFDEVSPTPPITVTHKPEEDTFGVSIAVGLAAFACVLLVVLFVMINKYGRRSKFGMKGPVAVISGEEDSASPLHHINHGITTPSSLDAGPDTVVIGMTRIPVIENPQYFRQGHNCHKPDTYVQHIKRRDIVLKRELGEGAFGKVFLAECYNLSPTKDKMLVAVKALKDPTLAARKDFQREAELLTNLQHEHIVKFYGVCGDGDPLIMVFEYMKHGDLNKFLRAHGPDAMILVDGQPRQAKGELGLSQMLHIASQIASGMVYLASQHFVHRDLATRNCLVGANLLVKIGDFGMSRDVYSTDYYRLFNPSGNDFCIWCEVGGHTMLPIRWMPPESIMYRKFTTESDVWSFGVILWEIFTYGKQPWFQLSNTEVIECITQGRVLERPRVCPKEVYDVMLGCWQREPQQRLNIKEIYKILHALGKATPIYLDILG
TrkA^G667C (Kinase domain) kinase, sequence (P04629 510-781 G667C): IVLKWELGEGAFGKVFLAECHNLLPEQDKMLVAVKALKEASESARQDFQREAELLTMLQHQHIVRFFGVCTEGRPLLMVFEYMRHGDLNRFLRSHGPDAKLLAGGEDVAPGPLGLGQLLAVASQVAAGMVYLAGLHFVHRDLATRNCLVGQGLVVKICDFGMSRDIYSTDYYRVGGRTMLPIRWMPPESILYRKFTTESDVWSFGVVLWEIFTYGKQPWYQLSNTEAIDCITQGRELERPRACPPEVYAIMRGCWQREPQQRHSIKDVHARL

One may read the IC50 as the concentration needed to halve the response being measured. A low value points to greater potency in that assay. With `NC(=O)c1c(N)nn2ccc(N3CCC[C@@H]3c3cc(F)ccc3F)nc12` [Example 4, (R)-2-amino-5-(2-(2,5-difluorophenyl)pyrrolidin-1-yl)pyrazolo[1,5-a]pyrimidine-3-carboxamide], the half-maximal inhibitory concentration (IC50) on TrkC kinase was less than 10 nM; on TrkA kinase (Table 1, ATP 40 μM) it was less than 1 nM; on TrkA kinase (Table 2, ATP 40 μM) it was less than 1 nM; against TrkB kinase, less than 10 nM; on JAK2 kinase, greater than 2000 nM.

As to `Nc1nn2ccc(N3CCC[C@@H]3c3cc(F)ccc3F)nc2c1C(=O)N[C@H]1CC[C@H](O)CC1` [Example 12, 2-amino-5-((R)-2-(2,5-difluorophenyl)pyrrolidin-1-yl)-N-((trans)-4-hydroxycyclohexyl)pyrazolo[1,5-a]pyrimidine-3-carboxamide], the IC50 at TrkC kinase is less than 1 nM; at TrkA kinase (Table 1, ATP 40 μM) it was less than 1 nM; against TrkA kinase (Table 2, ATP 40 μM), less than 1 nM; in series [1] it was less than 1 nM; on TrkB kinase, less than 1 nM; at JAK2 kinase it was greater than 20 nM.

Consider `Nc1nn2ccc(N3CCC[C@@H]3c3cc(F)ccc3F)nc2c1C(=O)Nc1ccc(F)cc1` [Example 14, (R)-2-amino-5-(2-(2,5-difluorophenyl)pyrrolidin-1-yl)-N-(4-fluorophenyl)pyrazolo[1,5-a]pyrimidine-3-carboxamide], for which the IC50 is less than 10 nM against TrkC kinase; less than 1 nM at TrkA kinase (Table 1, ATP 40 μM); less than 1 nM against TrkA kinase (Table 2, ATP 40 μM); less than 10 nM at TrkB kinase; greater than 500 nM against JAK2 kinase.

The term Cmax denotes the peak of the concentration-time curve. As a reminder, the Tmax is the time at which the peak concentration occurs. The term half-life denotes the time in which the quantity being followed falls by half. Read a high half-life as slow loss. `NC(=O)c1c(N)nn2ccc(N3C[C@@H](F)C[C@@H]3c3cc(F)ccc3F)nc12` [Example 36, 2-amino-5-((2R,4S)-2-(2,5-difluorophenyl)-4-fluoropyrrolidin-1-yl)pyrazolo[1,5-a]pyrimidine-3-carboxamide]: the IC50 on TrkC kinase was less than 1 nM; at TrkA kinase (Table 1, ATP 40 μM) it was less than 1 nM; against TrkA kinase (Table 2, ATP 40 μM), less than 1 nM; in series [1], less than 10 nM; against TrkB kinase it was less than 1 nM; at JAK2 kinase, greater than 100 nM. This compound had a peak concentration (Cmax) in series [2] of 488 ng/mL. Moreover, in series [2], the Tmax worked out at 1 h. In series [2], this compound showed a half-life of 3.09 h. Moreover, the AUC(0-inf) in series [2] was 2240 ng·h/mL.

For the compound `CNC(=O)c1c(N)nn2ccc(N3C[C@@H](F)C[C@@H]3c3cc(F)ccc3F)nc12` [Example 39, 2-amino-5-((2R,4S)-2-(2,5-difluorophenyl)-4-fluoropyrrolidin-1-yl)-N-methylpyrazolo[1,5-a]pyrimidine-3-carboxamide], the half-inhibitory concentration (IC50) at TrkC kinase is less than 1 nM; on TrkA kinase (Table 1, ATP 40 μM), less than 1 nM; against TrkA kinase (Table 2, ATP 40 μM) it was less than 1 nM; in series [1] it was less than 10 nM; at TrkB kinase, less than 1 nM; against JAK2 kinase, greater than 10 nM. In series [2], this compound had a Cmax of 276 ng/mL. Moreover, in series [2], the Tmax was 1.67 h. This compound had a half-life in series [2] of 1.46 h. The AUC(0-inf) in series [2] worked out at 876 ng·h/mL.

Compound `Nc1nn2ccc(N3C[C@@H](F)C[C@@H]3c3cc(F)ccc3F)nc2c1C(=O)NOCCO` [Example 50, 2-amino-5-((2R,4S)-2-(2,5-difluorophenyl)-4-fluoropyrrolidin-1-yl)-N-(2-hydroxyethoxy)pyrazolo[1,5-a]pyrimidine-3-carboxamide] came in with an IC50 at TrkA kinase (Table 1, ATP 40 μM) of less than 1 nM.

In turn, `Nc1nn2ccc(N3C[C@@H](F)C[C@@H]3c3cc(F)ccc3F)nc2c1C(=O)NC1CC1` [Example 51, 2-amino-N-cyclopropyl-5-((2R,4S)-2-(2,5-difluorophenyl)-4-fluoropyrrolidin-1-yl)pyrazolo[1,5-a]pyrimidine-3-carboxamide] yielded an IC50 against TrkA kinase (Table 1, ATP 40 μM) of less than 1 nM.

Consider `Nc1nn2ccc(N3C[C@@H](F)C[C@@H]3c3cc(F)ccc3F)nc2c1C(=O)NC1(CO)CC1` [Example 52, 2-amino-5-((2R,4S)-2-(2,5-difluorophenyl)-4-fluoropyrrolidin-1-yl)-N-(1-(hydroxymethyl)cyclopropyl)pyrazolo[1,5-a]pyrimidine-3-carboxamide], for which, on TrkA kinase (Table 1, ATP 40 μM), the IC50 is less than 1 nM.
